Assays:
[1] = tested on: antibodies in sera from SARS patients (sera 1a, 1b, 2, 6, 37, 62, London, SARS-yellow, SARS-green); type: binding, human; set-up: Binding of serum 6 to linear peptides of protein X1 of SARS-CoV Urbani / Binding of serum 37 to linear peptides of protein X1 of SARS-CoV Urbani / Binding of serum 6 to looped/cyclic peptide (PEPSCAN-ELISA) / Binding of serum 37 to looped/cyclic peptide (PEPSCAN-ELISA) / Binding of serum 37 to looped/cyclic peptides of protein X1 of SARS-CoV Urbani / Binding of serum 6 to linear peptides of protein X2 / Binding of serum 37 to linear peptides of protein X2 / Binding of serum 37 to looped/cyclic peptides of protein X2 of SARS-CoV Urbani / Binding of serum 6 to linear peptides of protein M of SARS-CoV Urbani / Binding of serum 37 to linear peptides of protein M of SARS-CoV Urbani / Binding of serum 6 to looped/cyclic peptides of protein M of SARS-CoV Urbani / Binding of serum 37 to looped/cyclic peptides of protein M of SARS-CoV Urbani / Binding of serum 6 to linear peptides of protein X3 of SARS-CoV Urbani / Binding of serum 37 to linear peptides of protein X3 of SARS-CoV Urbani / Binding of serum 37 to looped/cyclic peptides of protein X3 of SARS-CoV Urbani / Binding of serum 6 to linear peptides of protein X4 of SARS-CoV Urbani / Binding of serum 37 to linear peptides of protein X4 of SARS-CoV Urbani / Binding of serum 37 to looped/cyclic peptides of protein X4 of SARS-CoV Urbani / Binding of serum 6 to linear peptides of protein X5 of SARS-CoV Urbani / Binding of serum 37 to linear peptides of protein X5 of SARS-CoV Urbani / Binding of serum 37 to looped/cyclic peptides of protein X5 of SARS-CoV Urbani / Binding of serum 6 to linear peptides of protein N of SARS-CoV Urbani / Binding of serum 37 to linear peptides of protein N of SARS-CoV Urbani / Binding of serum 6 to linear peptide (PEPSCAN-ELISA) / Binding of serum 1a to looped/cyclic peptides of protein N of SARS-CoV Urbani / Binding of serum 1b to looped/cyclic peptides of protein N of SARS-CoV Urbani / Binding of serum 2 to looped/cyclic peptides of protein N of SARS-CoV Urbani / Binding of serum 6 to looped/cyclic peptides of protein N of SARS-CoV Urbani / Binding of serum 37 to looped/cyclic peptides of protein N of SARS-CoV Urbani / Binding of serum 62 to looped/cyclic peptides of protein N of SARS-CoV Urbani / Binding of serum London to looped/cyclic peptides of protein N of SARS-CoV Urbani / Binding of serum SARS-green to looped/cyclic peptides of protein N of SARS-CoV Urbani: unit not given here
[2] = tested on: control sera (pooled serum of ten healthy LUMC hospital workers; commercial negative donor pooled serum from the Dutch bloodbank); type: binding, human; set-up: Binding of Control serum LUMC to linear peptides / Binding of Control serum Blood-bank to linear peptides / Binding of Control serum LUMC to looped peptides / Binding of Control Serum Blood-Bank to Looped peptides / Binding of Control serum LUMC to linear peptides of the protein M of SARS-CoV Urbani / Binding of Control serum Blood-bank to linear peptides of the protein M of SARS-CoV Urbani / Binding of Control serum LUMC to looped peptides of the protein M of SARS-CoV Urbani / Binding of Control Serum Blood-Bank to Looped peptides of the protein M of SARS-CoV Urbani: unit not given here
[3] = tested on: rabbit serum obtained by immunizing a rabbit with the SARS-CoV strain Frankfurt 1; type: binding; set-up: Binding of a rabbit serum to linear peptides / Binding of a rabbit serum to looped peptides / Rabbit serum linear peptides / Rabbit serum looped peptides / Binding of a rabbit serum to linear peptides of protein N of SARS-CoV Urbani (Rabbit serum linear peptides) / Binding of a rabbit serum to looped/cyclic peptides of protein N of SARS-CoV Urbani (Rabbit serum looped peptides): unit not given here
[4] = tested on: recombinant human anti-SARS-CoV antibody 03-018; type: binding; set-up: Binding of antibody 03-018 to linear peptides of the N protein of SARS-CoV Urbani / Binding of antibody 03-018 to looped/cyclic peptides of the N protein of SARS-CoV Urbani: unit not given here

Row | Sequence | Binding of serum 1a to linear peptides of protein N of SARS-CoV Urbani [1] | Binding of serum 1a to looped/cyclic peptides of protein N of SARS-CoV Urbani [1] | Binding of serum 1b to linear peptides of protein N of SARS-CoV Urbani [1] | Binding of serum 1b to looped/cyclic peptides of protein N of SARS-CoV Urbani [1] | Binding of serum 2 to linear peptides of protein N of SARS-CoV Urbani [1] | Binding of serum 2 to looped/cyclic peptides of protein N of SARS-CoV Urbani [1] | Binding of serum 6 to linear peptides of protein N of SARS-CoV Urbani [1] | Binding of serum 6 to looped/cyclic peptides of protein N of SARS-CoV Urbani [1] | Binding of serum 37 to linear peptides of protein N of SARS-CoV Urbani [1] | Binding of serum 37 to looped/cyclic peptides of protein N of SARS-CoV Urbani [1] | Binding of serum 62 to linear peptides of protein N of SARS-CoV Urbani [1] | Binding of serum 62 to looped/cyclic peptides of protein N of SARS-CoV Urbani [1] | Binding of serum London to linear peptides of protein N of SARS-CoV Urbani [1] | Binding of serum London to looped/cyclic peptides of protein N of SARS-CoV Urbani [1] | Binding of serum SARS-green to linear peptides of protein N of SARS-CoV Urbani [1] | Binding of serum SARS-green to looped/cyclic peptides of protein N of SARS-CoV Urbani [1] | Binding of serum SARS-yellow to linear peptides of protein N of SARS-CoV Urbani [1] | Binding of serum SARS-yellow to looped/cyclic peptides of protein N of SARS-CoV Urbani [1] | Binding of antibody 03-018 to linear peptides of the N protein of SARS-CoV Urbani [4] | Binding of antibody 03-018 to looped/cyclic peptides of the N protein of SARS-CoV Urbani [4] | other results
1 | TEPKKDKKKKTDEAQ | 0.2 | 0.2 | 0.1 | 0.1 | 2.5 | 1.9 | 0.2 | 0.1 | 0.7 | 0.4 | 0.7 | 0.3 | 0.6 | 0.3 | 0.5 | 0.0 | 0.6 | 0.2 | 0.1 | 0.2 | Control Serum Blood-Bank Looped peptides [2]: 0.5; Control serum Blood-bank linear peptides [2]: 0.7; Control serum LUMC linear peptides [2]: 0.8; Control serum LUMC looped peptides [2]: 0.4; Binding of a rabbit serum to linear peptides of protein N of SARS-CoV Urbani (Rabbit serum linear peptides) [3]: 0.2; Binding of a rabbit serum to looped/cyclic peptides of protein N of SARS-CoV Urbani (Rabbit serum looped peptides) [3]: 0.3
2 | TGPEASLPYGANKEG | 0.3 | 0.3 | 0.2 | 0.2 | 0.3 | 0.5 | 0.3 | 0.4 | 0.7 | 0.6 | 0.9 | 0.5 | 0.7 | 0.6 | 0.8 | 0.7 | 0.6 | 0.4 | 0.1 | 0.2 | Binding of Control Serum Blood-Bank to Looped peptides [2]: 0.8; Binding of Control serum Blood-bank to linear peptides [2]: 0.9; Binding of Control serum LUMC to linear peptides [2]: 1.1; Binding of Control serum LUMC to looped peptides [2]: 0.6; Binding of a rabbit serum to linear peptides of protein N of SARS-CoV Urbani (Rabbit serum linear peptides) [3]: 0.1; Binding of a rabbit serum to looped/cyclic peptides of protein N of SARS-CoV Urbani (Rabbit serum looped peptides) [3]: 0.5
3 | TKQYNVTQAFGRRGP |  | 0.4 |  | 0.2 |  | 0.5 |  | 0.3 |  | 0.7 |  | 0.7 |  | 0.5 |  | 0.4 |  | 0.6 | 0.1 | 0.3 | Binding of serum 1a to linear peptide (PEPSCAN-ELISA) [1]: 0.3; Binding of serum 1b to linear peptide (PEPSCAN-ELISA) [1]: 0.1; Binding of serum 2 to linear peptide (PEPSCAN-ELISA) [1]: 0.2; Binding of serum 6 to linear peptide (PEPSCAN-ELISA) [1]: 0.2; Binding of serum 37 to linear peptide (PEPSCAN-ELISA) [1]: 0.8; Binding of serum 62 to linear peptide (PEPSCAN-ELISA) [1]: 0.7; Binding of serum London to linear peptide (PEPSCAN-ELISA) [1]: 0.5; Binding of serum SARS-green to linear peptide (PEPSCAN-ELISA) [1]: 0.5; Binding of serum SARS-yellow to linear peptide (PEPSCAN-ELISA) [1]: 0.7; Binding of Control Serum Blood-Bank to Looped peptides [2]: 0.9; Binding of Control serum Blood-bank to linear peptides [2]: 0.8; Binding of Control serum LUMC to linear peptides [2]: 0.8; Binding of Control serum LUMC to looped peptides [2]: 0.9; Recognition of the peptide by the rabbit serum [3]: recognized
4 | TLLPAADMDDFSRQL | 0.3 | 0.4 | 0.2 | 0.2 | 0.2 | 0.5 | 0.4 | 0.1 | 1.0 | 0.4 | 0.7 | 0.1 | 0.6 | 0.2 | 0.7 | 0.0 | 0.7 | 0.4 | 0.1 | 0.1 | Control Serum Blood-Bank Looped peptides [2]: 0.5; Control serum Blood-bank linear peptides [2]: 0.7; Control serum LUMC linear peptides [2]: 0.8; Control serum LUMC looped peptides [2]: 0.4; Binding of a rabbit serum to linear peptides of protein N of SARS-CoV Urbani (Rabbit serum linear peptides) [3]: 0.1; Binding of a rabbit serum to looped/cyclic peptides of protein N of SARS-CoV Urbani (Rabbit serum looped peptides) [3]: 0.0
5 | TQAFGRRGPEQTQGN |  | 0.3 |  | 0.2 |  | 0.4 |  | 0.3 |  | 0.5 |  | 0.5 |  | 0.4 |  | 0.3 |  | 0.2 | 0.1 | 0.2 | Binding of serum 1a to linear peptide (PEPSCAN-ELISA) [1]: 0.2; Binding of serum 1b to linear peptide (PEPSCAN-ELISA) [1]: 0.1; Binding of serum 2 to linear peptide (PEPSCAN-ELISA) [1]: 0.2; Binding of serum 6 to linear peptide (PEPSCAN-ELISA) [1]: 0.2; Binding of serum 37 to linear peptide (PEPSCAN-ELISA) [1]: 0.6; Binding of serum 62 to linear peptide (PEPSCAN-ELISA) [1]: 0.5; Binding of serum London to linear peptide (PEPSCAN-ELISA) [1]: 0.5; Binding of serum SARS-green to linear peptide (PEPSCAN-ELISA) [1]: 0.3; Binding of serum SARS-yellow to linear peptide (PEPSCAN-ELISA) [1]: 0.5; Binding of Control Serum Blood-Bank to Looped peptides [2]: 0.7; Binding of Control serum Blood-bank to linear peptides [2]: 0.8; Binding of Control serum LUMC to linear peptides [2]: 0.7; Binding of Control serum LUMC to looped peptides [2]: 0.6; Recognition of the peptide by the rabbit serum [3]: recognized
